According to article PMC5675618, “Identification and validation of FGFR2 peptide for detection of early Barrett's neoplasia” (Oncotarget, 2017):
No end group written: not given here. Cy5.5 = near-infrared fluorophore Cy5.5

Key:
[1] = test system: FGFR2b, AKT, ERK phosphorylation in QhTERT cells; assay: Western blot, effect of peptide binding on cell signaling, QhTERT cells expressing FGFR2b; assay type: cell-based, human; conditions: 20 min
Description: (§1) QhTERT cells that overexpress either FGFR2b or FGFR2c were seeded in 12-well flat-bottom plates with 500 μL of serum-free medium for 16 hours. FGF1 (#2232-FA-025, R&D systems) was reconstituted to a concentration of 100 μg/mL using PBS, diluted with 0.1% bovine serum albumin, and added to the cells at final concentrations of 100 ng/mL for 20 min in separate wells. Heparin (# H3149-10KU, Sigma) with final concentration of 100 units/mL was also added to increase stability. In addition, peptides at concentrations of 5 and 100 μM were incubated for 20 min in separate wells. The cells were washed with PBS and lysed in RIPA buffer containing protease inhibitors (#11836170001, Roche, Basel, Switzerland). Lysates were separated by gel electrophoresis, transferred to polyvinylidene difluoride membranes (#ISEQ00010, Millipore), and detected by immunoblotting using an enhanced chemiluminescence system (#RPN2106, GE Healthcare). Anti-FGFR2 antibody (#SC122, Santa Cruz Biotechnology), anti-phospho-FGFR (#3471, Cell Signaling Technology), anti-AKT (#4691P, Cell Signaling Technology), anti-ERK1/2 (#4695P, Cell Signaling Technology), anti-phospho-AKT (pS473; #4060P, Cell Signaling Technology), anti-phospho-ERK1/2 (#4370P, Cell Signaling Technology), and anti-tubulin (#32–2600, Invitrogen) were used as per manufacturer's instructions.

[2] = test system: FGFR2c, AKT, ERK phosphorylation in QhTERT cells; assay: Western blot, effect of peptide binding on cell signaling, QhTERT cells expressing FGFR2c; assay type: cell-based, human; conditions: 20 min
Description: as §1

[3] = test system: QhTERT cells that express FGFR2c; assay: Competition for binding of SRR^*-Cy5.5 with unlabeled peptide, confocal microscopy; assay type: cell-based, human; conditions: 30 min at 4°C, then 5 μM SRR^*-Cy5.5, 30 min at 4°C
Description: Specific peptide binding to QhTERT/FGFR2c was validated on competitive inhibition with addition of unlabeled peptide. ~10^3 cells were grown to ~70% confluence on cover glass in triplicate. Unlabeled peptides at concentrations of 0, 50, 100, 150, 250, and 500 μM were incubated with the cells for 30 min at 4°C. The cells were washed and incubated with 5 μM of the target peptide for another 30 min at 4°C. The cells were washed and fixed with 4% PFA for 5 min. The cells were washed with PBS and mounted with ProLong Gold reagent containing DAPI (Invitrogen).

[4] = test system: Barrett's neoplasia; conditions: topical to mucosal surface, clinic, ref [19], [20], cited from earlier work
Description: An empiric peptide labeled with FITC was administered topically to the mucosal surface. Early neoplasia was detected with 94% specificity and 96% positive predictive value. Included in the analysis were 28 flat lesions (Paris 0-IIb) that were poorly visualized with white light. […] Peptides have high diversity, and can achieve high specificity with binding affinities on the ...

[5] = Fluorescence spectra of Cy5.5-labeled peptides; assay type: physicochemical; conditions: 10 μM in PBS, excitation λex = 671 nm
Text: We synthesized the 12 amino acid sequence SRRPASFRTARE (black) and attached the fluorophore Cy5.5 (red) via a GGGSK linker (blue) on the C-terminus, hereafter SRR^*-Cy5.5, Figure 1A. Cy5.5 was chosen for photostability and high quantum yield in the near-infrared (NIR) spectrum. We used a linker to prevent steric hindrance of the peptide by the dye. We then used a structural model (1EV2), [24] […] This domain is the same in either isoform FGFR2IIIb or FGFR2IIIc. We also used this model to develop a scrambled sequence SPSRERTFRARA for a control, Figure 1C. This peptide was also labeled with Cy5.5 via a GGGSK linker, hereafter SPS^*-Cy5.5. For SPS^*-Cy5.5, we calculated Et = −277.37. […] We purified SRR^*-Cy5.5 and […] to >97% on HPLC, and measured an experimental mass-to-charge (m/z) ratio on mass spectrometry of 2385.31 for both peptides that agreed with the expected value, Supplementary Figure 3.
Figure 1 Peptide specific for FGFR2 Chemical structure is shown for 12 amino acid (aa) peptide sequence (A) SRRPASFRTARE (SRR^*) found to be specific for FGFR2, and (B) scrambled peptide SPSRERTFRARA (SPS^*) used for control. A Cy5.5 fluorophore (red) is attached via a GGGSK linker (blue) to prevent steric hindrance.

[6] = test system: QhTERT cells that express FGFR2b; assay: Confocal fluorescence microscopy, binding to QhTERT cells that express FGFR2b; assay type: cell-based, human; conditions: 1 μM peptide, 10 min at RT; confocal, 63X
Text: (§2) All human esophageal specimens were obtained with written, informed patient consent per approval and guidelines of the University of Michigan Institutional Review Board (IRB). Human non-dysplastic Barrett's esophagus (BE) cells immortalized with hTert (QhTERT) were obtained from the American Type Culture Collection (ATCC) and cultured in keratinocyte-serum free medium containing bovine pituitary extract and human recombinant EGF (ThermoFisher #17005042). QhTERT cells with stable expression of FGFR2b or FGFR2c were provided (DGB). We cultured these cells with keratinocyte-serum free medium containing bovine pituitary extract and human recombinant EGF (ThermoFisher #17005042) and added 1 μg/mL of puromycin-dihydrochloride (Invitrogen #A11138-03). All cells were cultured at 37°C in 5% CO2, and were passaged using 0.25% EDTA containing trypsin (Mediatech Inc). A hemocytometer was used to determine cell number. Peptide synthesis reagents were obtained from either Anaspec or AAPPTEC with the highest grade available (>99% purity) and used without further purification. Solvents and other chemical reagents were obtained from Sigma-Aldrich, unless otherwise stated.
(§3) ~10^3 QhTERT/wt, QhTERT/FGFR2b, and QhTERT/FGFR2c cells were grown on cover glass to ~80% confluence. The cells were washed with PBS 1X and incubated with 1 μM of either peptide for 10 min at RT. The cells were then washed 3X in PBS, fixed with 4% paraformaldehyde (PFA) for 5 min, washed 1X with PBS, and then mounted on glass slides with ProLong Gold reagent containing DAPI (Invitrogen). Confocal fluorescence images were collected with Cy5.5 and DAPI filters (Leica Inverted SP5X 2-Photon FLIM confocal microscopes) using a 63X oil-immersion objective. Fluorescence intensities from 3 cells in each of 3 independent images were quantified using custom Matlab (Mathworks) software.

[7] = test system: QhTERT cells that express FGFR2c; assay: Confocal fluorescence microscopy, binding to QhTERT cells that express FGFR2c; assay type: cell-based, human; conditions: 1 μM peptide, 10 min at RT; confocal, 63X
Text: as §2, §3

[8] = test system: QhTERT wild-type cells; assay: Confocal fluorescence microscopy, binding to wild-type QhTERT cells; assay type: cell-based, human; conditions: 1 μM peptide, 10 min at RT, 63X
Text: as §2, with “Peptide synthesis reagents were obtained from either Anaspec or AAPPTEC with the highest grade available (>99% purity) and used without further purification. Solvents and other chemical reagents were obtained from Sigma-Aldrich, unless otherwise stated.” left out
~10^3 QhTERT/wt, QhTERT/FGFR2b, and QhTERT/FGFR2c cells were grown on cover glass to ~80% confluence. […] Confocal fluorescence images were collected with Cy5.5 and DAPI filters (Leica Inverted SP5X 2-Photon FLIM confocal microscopes) using a 63X oil-immersion objective. Fluorescence intensities from 3 cells in each of 3 independent images were quantified using custom Matlab (Mathworks) software.

[9] = target: T1, FGFR2c on QhTERT cells (UniProt P21802-1 22-821); assay: flow cytometry on cells; apparent dissociation constant; Cy5.5-labeled peptide 0 to 200 nM in 25 nM increments in PBS, ~10^5 QhTERT/FGFR2c cells, 4°C for 1 hour, mean fluorescence intensity; conditions: one partner purified
T1 construct: fibroblast growth factor receptor 2, isoform IIIc (C-terminus of D3 encoded by exon 9), stably expressed in human QhTERT cells; also called FGFR2IIIc; isoform IIIc of FGFR2
T1 sequence (P21802 22-821): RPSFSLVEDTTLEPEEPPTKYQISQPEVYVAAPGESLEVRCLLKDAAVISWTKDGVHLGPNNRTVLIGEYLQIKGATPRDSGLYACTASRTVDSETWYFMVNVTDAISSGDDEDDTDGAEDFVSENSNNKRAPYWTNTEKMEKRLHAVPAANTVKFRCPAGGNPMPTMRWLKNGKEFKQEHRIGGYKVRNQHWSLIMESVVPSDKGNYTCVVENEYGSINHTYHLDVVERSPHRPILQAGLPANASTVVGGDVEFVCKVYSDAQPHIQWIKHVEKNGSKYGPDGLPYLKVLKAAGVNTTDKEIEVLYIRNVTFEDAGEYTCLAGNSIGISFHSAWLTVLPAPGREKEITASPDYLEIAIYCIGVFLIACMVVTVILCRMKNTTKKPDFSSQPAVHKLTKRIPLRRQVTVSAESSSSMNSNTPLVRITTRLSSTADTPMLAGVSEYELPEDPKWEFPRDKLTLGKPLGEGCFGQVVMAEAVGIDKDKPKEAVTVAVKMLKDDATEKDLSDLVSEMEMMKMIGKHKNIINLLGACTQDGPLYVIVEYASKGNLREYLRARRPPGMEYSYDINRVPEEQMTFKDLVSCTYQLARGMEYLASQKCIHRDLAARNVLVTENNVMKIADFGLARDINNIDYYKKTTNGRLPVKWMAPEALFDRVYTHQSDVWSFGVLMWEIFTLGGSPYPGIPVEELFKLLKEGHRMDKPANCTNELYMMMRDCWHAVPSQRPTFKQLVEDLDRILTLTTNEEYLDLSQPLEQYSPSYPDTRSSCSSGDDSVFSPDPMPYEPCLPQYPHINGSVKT

[10] = FGF1 100 ng/mL, heparin 100 units/mL

## FGF1: FGF1 (#2232-FA-025, R&D systems), positive control [reference compound]
[1]; [10]
  phosphorylation of FGFR2 (p-FGFR), AKT (p-AKT) and ERK (p-ERK), positive control: to some extent
[2]; [10]
  phosphorylation of FGFR2 (p-FGFR), AKT (p-AKT) and ERK (p-ERK), positive control: strong phosphorylation activity

## SRRPASFRTARE [SRR^*, unlabeled 12 amino acid peptide … specific for FGFR2]
[3]; unlabeled SRR^* at 50 μM and greater vs 0 μM
  mean fluorescence intensity of SRR^*-Cy5.5 with unlabeled target peptide: significant reduction
[1]; peptide at 5 or 100 μM
  phosphorylation of FGFR2 (p-FGFR), AKT (p-AKT) and ERK (p-ERK): no change in phosphorylation
[2]; peptide at 5 or 100 μM
  phosphorylation of FGFR2 (p-FGFR), AKT (p-AKT) and ERK (p-ERK): no change in phosphorylation

## ASYNYDA [empiric peptide labeled with FITC, 7 amino acid peptide ASYNYDA that was labeled with FITC]
[4]; included 28 flat lesions
  positive predictive value, early neoplasia detection: 96%
  specificity, early neoplasia detection: 94%
[4]
  time of binding: ≤ 5 min

## SPSRERTFRARA [SPS^*-Cy5.5]
[5]
  peak emission λem: 710 nm
[6]
  cell surface fluorescence signal / binding: Minimal binding
[7]
  cell surface fluorescence signal / binding: Minimal binding
[8]
  cell surface fluorescence signal / binding: Minimal binding

## SPSRERTFRARA [SPS^*, unlabeled scrambled peptide … used for control]
[3]; unlabeled SPS^* at any concentration (0, 50, 100, 150, 250, 500 μM)
  mean fluorescence intensity of SRR^*-Cy5.5 with unlabeled control peptide: No significant difference

B1: SRR*-Cy5.5 (peptide)
peptide: SRRPASFRTAREGGGSK(Cy5.5)-NH2
notes: 12-residue peptide selected by phage display (Ph.D.-12 library) against FGFR2-ECD; linker on the C-terminus that carries the Cy5.5; Assembled on rink amide MBHA resin, so the C-terminus is probably an amide; also called FGFR2 peptide; source: synthetic peptide (Fmoc solid-phase synthesis, prep-HPLC, >97%)
[9]
  Kd: 68 nM
